Results reported in US20260334464A1, “INCREASED PALATABILITY OF INSECTICIDAL INSECT BAITS” (BIO LOGIC CROP SCIENCE S.L., priority 2023, published 2026).

Legend:
Assay type in all cases: in vivo
Lasius niger [1] = assay: Palatability of imidacloprid ant bait (Example 3); details: 0.01 wt. % imidacloprid in bait
Description: (§1) Ants: The tests are conducted in transparent plastic boxes covered on top with a mixture of ethanol and talcum powder (talcol) which prevents ants from fleeing. A drop of bait is placed on a holder, and the holder is placed with 10-30 ants and the behaviour of the ants is observed.
(§2) The number of ants eating bait is counted every minute until 10′ and every 5 minutes until 30′. The boxes with ants are kept with the sample, with a source of humidity and alternative food to observe mortality at 24 hours and 48 hours.
To test the combination effect of cycloserine and/or phloxine with known insecticides used in baits, we used an ant bait-type composition and its equivalents of Example 1, but containing 0.01 wt. % of the insecticide imidacloprid. Serine was also tested in parallel instead of cycloserine.
The bait is offered to them, in boxes containing 10 Lasius niger ants each, for 3 hours, during which time palatability is observed.

insects [2] = assay: Increase in palatability of baits, general statement; details: for effect on palatability of baits (in words): general statement; for comparison of activity of D and L isomers: D-cycloserine, L-cycloserine or mixtures in any ratio
Culex quinquefasciatus = assay: Insecticidal efficacy of bait; details: according to our experience
Description: (§3) Mosquitoes: Bait is added at 10% in water used by mosquitoes for drinking, placed in ordinary breeding nets, 10×10×10 cm^3, ad libitum.

Anopheles gambiae = assay: Insecticidal efficacy of bait; details: according to our experience
Description: as §3

Simuliidae ssp. = assay: Insecticidal efficacy of bait; details: according to our experience
cockroach = assay: Transfer of lethal effect by cannibalism; details: cockroach offered a cycloserine-treated cockroach
Excerpt: This circumstance, in addition to the use of cycloserine to increase the palatability of the baits, means that cycloserine can be used as an insecticide and also with an infrequent, or even unknown, particularity in pest control, i.e. the treated insects die in extraordinarily (relatively) long times of up to 7 days. This, which in principle may seem a disadvantage, is not so in certain cases, since it allows the ants to have more time to live functionally well, without external signs of intoxication that could warn other ants, and to transmit the bait by tropholaxy to the queen ant (or queen ants of the same anthill, when this is the case) and thus more effectively destroy the anthill. Similarly, the alertness (if any) of conspecifics to a dead cockroach near the bait is suppressed. […] Similarly, for long-term pest control, immediacy is not an insurmountable requirement, so it is also applicable in mosquito control to prevent disease transmission or pest control in agriculture.

Musca domestica = assay: Insecticidal efficacy of bait; details: according to our experience
Description: (§4) Flies: Bait is added at 10% in water used by the flies for drinking, placed in 10×10×10 cm^3 ordinary breeding nets, ad libitum.
(§5) Similarly, tests have been carried out with […] with house flies (Musca domestica) and with Mediterranean flies (Ceratitis capitata).

Ceratitis capitata = assay: Insecticidal efficacy of bait; details: according to our experience
Description: as §4, §5

Periplaneta america = assay: Test 2A: palatability in terms of grams ingested (Example 2); details: cockroach test of Example 2
Excerpt: (§6) Cockroaches: The cockroach test protocol, which can be performed at any location with usual temperature and humidity conditions and with field- or insectary-raised cockroaches, consists of collecting cockroaches that are deprived of food for 7 days; on the day of the test, 4 females and 4 males (or the desired number, for individual measurements, only one individual) are placed in boxes in which the bait is placed in a known quantity and the number of visits to the bait is counted every certain time, optionally the quantity ingested every hour or certain minutes is determined by differential weighing. In examples where mortality is considered, the number of individuals turned over per hour (or other defined time) is observed. The bait is removed and replaced with a standard bait-such as pelleted dog food and a water source, such as moistened cotton wool- and daily mortality is monitored for one week.
A similar test was performed with Periplaneta america, Blattella germanica and Blatta orientialis cockroaches, as detailed below for the first species. In this case, it was possible to evaluate the amount of bait ingested per individual, with the formulas of this example corresponding to those of Example 1, but replacing the 20% fructose in all of them by 20% commercial hazelnut cream, so that we have the formulations C.2.1, P.2.1, P.2.2, P.2.3 with that change only.

Periplaneta americana = assay: Insecticidal efficacy of bait; details: according to our experience
Excerpt: as §6

Blatta orientalis = assay: Insecticidal efficacy of bait; details: according to our experience
Excerpt: as §6

Blattella germanica = assay: Insecticidal efficacy of bait; details: according to our experience
Excerpt: as §6

Aedes albopictus = assay: Insecticidal efficacy of bait; details: according to our experience
Description: as §3
(§7) In the case of mosquito tests, the bait is given ad libitum to 50 specimens in 10 cm×10 cm×10 cm^3 cloth cages, using cotton wool impregnated with the baits mentioned above, but with a sugar mix content of only 10%, the rest being compensated by adding more water to the formula, so that it is liquid enough to be absorbed by the mosquitoes.

Culex pipiens = assay: Insecticidal efficacy of bait; details: according to our experience
Description: as §3, §7

Aedes aegypti = assay: Insecticidal efficacy of bait; details: according to our experience
Description: as §3, §7

Bactrocera oleae = assay: Insecticidal efficacy of bait; details: according to our experience
Bactrocera cucurbitae = assay: Insecticidal efficacy of bait; details: according to our experience
insects [3] = assay: Insecticidal efficacy / mortality of baits, general statement; details: for time to elimination of the insects (delayed mortality): cycloserine exclusively as active ingredient in bait; for difference in kill or duration between D-, L-cycloserine and mixtures: more detailed trials
Description: On the other hand, in addition to the effect of increased palatability, the effect on mortality of compositions containing D-cycloserine, L-cycloserine and DL-cycloserine was investigated.
At this point, we encounter the unexpected situation, not observed in previous trials because it is not usual to determine death within a short time after exposure to the bait (e.g. from a few minutes to a maximum of 24 hours), that baits containing cycloserine exclusively as active ingredient (that is, in a conceptual simplification, water, sugar and cycloserine, or even water with cycloserine), both D-cycloserine and L-cycloserine or their mixtures in any ratio, present delayed mortality, reaching the elimination of the insects they have eaten in up to 7 days.

Lasius niger [4] = assay: Insecticidal efficacy of bait; details: according to our experience
Description: as §1, §2

Linepithema humile = assay: Insecticidal efficacy of bait; details: according to our experience
Description: as §1, §2

ants = assay: Example 1 baits with serine, increase in palatability vs control (results not shown); details: serine instead of cycloserine, or combinations
Description: as §1, §2
On the other hand (results not shown), when serine is used instead of cycloserine in the bait, an increase in palatability is also observed, although somewhat lower, around 1.5-1.7 times compared to the control, and when serine, cycloserine and phloxine B, or serine and phloxine B are combined, this increase is 1.7-1-8 times compared to the control, with no appreciable differences between these last two combinations.

**Q.** With `O=[N+]([O-])NC1=NCCN1Cc1ccc(Cl)nc1` [imidacloprid] as the compound, how does the bait rejection (Lasius niger [1]) read?
**A.** does not cause bait rejection

**Q.** `O=C([O-])c1c(Cl)c(Cl)c(Cl)c(Cl)c1-c1c2cc(Br)c(=O)c(Br)c-2oc2c(Br)c([O-])c(Br)cc12.[Na+].[Na+]` [phloxine B] was tested. Which “effect on palatability of baits (in words)” value (insects [2]) did it give?
**A.** shown to increase the palatability of baits

**Q.** How did the “efficacy as an insecticide” value (Culex quinquefasciatus) turn out when `N[C@@H]1CON=C1O` [cycloserine] was run?
**A.** great efficacy

**Q.** And the “efficacy as an insecticide” value (Anopheles gambiae)?
**A.** great efficacy

**Q.** And the “efficacy as an insecticide” value (Simuliidae ssp.)?
**A.** great efficacy

**Q.** And the “transfer of lethal effect to another cockroach” value (cockroach)?
**A.** lethal effect of cycloserine on one cockroach is transferred to another cockroach

**Q.** What about the “efficacy as an insecticide” value (Musca domestica) of the same compound?
**A.** great efficacy

**Q.** And the “efficacy as an insecticide” value (Ceratitis capitata)?
**A.** great efficacy

**Q.** And the “effect on palatability (in words)” value (Periplaneta america)?
**A.** more pronounced

**Q.** And the “efficacy as an insecticide” value (Periplaneta americana)?
**A.** great efficacy

**Q.** And the “efficacy as an insecticide” value (Blatta orientalis)?
**A.** great efficacy

**Q.** And the “efficacy as an insecticide” value (Blattella germanica)?
**A.** great efficacy

**Q.** What about the “comparison of activity of D and L isomers” value (insects [2]) of the same compound?
**A.** activity we have observed to be the same

**Q.** And the “effect on palatability of baits (in words)” value (insects [2])?
**A.** shown to increase the palatability of baits

**Q.** What about the “efficacy as an insecticide” value (Aedes albopictus) of the same compound?
**A.** great efficacy

**Q.** What about the “efficacy as an insecticide” value (Culex pipiens) of the same compound?
**A.** great efficacy

**Q.** And the “efficacy as an insecticide” value (Aedes aegypti)?
**A.** great efficacy

**Q.** What about the “efficacy as an insecticide” value (Bactrocera oleae) of the same compound?
**A.** great efficacy

**Q.** What about the “efficacy as an insecticide” value (Bactrocera cucurbitae) of the same compound?
**A.** great efficacy

**Q.** And the “time to elimination of the insects (delayed mortality)” value (insects [3])?
**A.** up to 7 days

**Q.** What about the “efficacy as an insecticide” value (Lasius niger [4]) of the same compound?
**A.** great efficacy

**Q.** What about the “efficacy as an insecticide” value (Linepithema humile) of the same compound?
**A.** great efficacy

**Q.** What does the source list for `N[C@@H](CO)C(=O)O` [serine]?
**A.** effect on palatability (in words) (Periplaneta america): increases palatability, but to a lesser extent than cycloserine; effect on palatability of baits (in words) (insects [2]): shown to increase the palatability of baits; increase in palatability compared to the control (ants): 1.5-1.7 times

**Q.** For `N[C@H]1CONC1=O` [L-cycloserine], which “comparison of activity of D and L isomers” value (insects [2]) is on record?
**A.** we have not seen an activity of one isomer greater than the other

**Q.** What about the “time to elimination of the insects (delayed mortality)” value (insects [3]) of the same compound?
**A.** up to 7 days

**Q.** What about the “difference in kill or duration between D-, L-cycloserine and mixtures” value (insects [3]) of the same compound?
**A.** no significant difference in kill or duration

**Q.** Which results are given for `N[C@@H]1CONC1=O` [D-cycloserine]?
**A.** comparison of activity of D and L isomers (insects [2]): we have not seen an activity of one isomer greater than the other; time to elimination of the insects (delayed mortality) (insects [3]): up to 7 days; difference in kill or duration between D-, L-cycloserine and mixtures (insects [3]): no significant difference in kill or duration
